The values that follow are results of earlier work, collected in patent EP3520802A1, “PROCESS FOR EXTRACTING CURCUMINOIDS” (EFESON - Chemical Research & Engineering Development, priority 2018, dated 2019).

The structures appear in SMILES notation.

The conditions of this series: non-clustered curcuminoid, usual value stated as background.

With `COc1cc(/C=C/C(=O)CC(=O)/C=C/c2ccc(O)c(OC)c2)ccc1O` [Curcumin I, curcumin], the logP entry was “around 2.90”.
